Tests used:
CD4+ T cells = test: IFN-γ ELISPOT of CD4+ T cells presensitized with overlapping NY-ESO-1 18 mer peptides; format: cell-based, human
[1] = system: CD4+ T cell clones NW2337-CD4-1 and NW2337-CD4-10; test: 51Cr release assay with peptide-pulsed EBV-B target cells; format: cell-based, human
Procedure: In these experiments, exemplary clones NY-ESO-1 p49-66 specific CD4^+ T cell clone NW2337-CD4-1 and NY-ESO-1 p55-72 specific CD4^+ T cell clone NW2337-CD4-10 were characterized in ^51Chromium (^51Cr) release assays using peptides overlapping the sequence of each stimulation peptide. Standard ^51Cr release assay methods were used. Briefly, autologous EBV B cell target cells were labeled with 100 μCi Na2^51CrO4 for 2 hours, and pulsed with 18 mer or 20 mer NY-ESO-1 peptides (10 μg/ml) for 1 hour. Then, 1×10^3 target cells/well were incubated in 96 V- bottom microwell plates with effector cells at different E/T ratios for 4 h at 37° C. ^51Cr release was measured in the supernatant and the specific cytotoxicity was calculated using the standard methods. Polyclonal T-cell populations were preincubated with unlabeled K562 cells as competitors at a concentration of 40:1 in order to block non-specific effector reactions.
These experiments confirmed recognition of naturally presented NY-ESO-1 epitopes by the CD4+ T-cell clones.

HLA-DQB1 03011 = target: T1, HLA-DQB1 03011 (Homo sapiens, UniProt P01909+P01920); test: ELISPOT with peptide pulsed allogeneic EBV-B-cells of known HLA class II type (HLA restriction); format: cell-based
T1 construct: peptide pulsed allogeneic EBV-B-cells with known HLA class II types as stimulator cells; endogenous in cells; host or cells: allogeneic patient-derived EBV-transformed B-cell lines (NW-2078, NW-2081, NW-2395, NW-2234, NW-2337, NW-1100, MZ-1257)
Procedure: In order to determine the HLA molecule to which the novel NY-ESO-1 peptides described above bind, the NW2337 CD4^+ T-cell clones NW2337-CD4-1 and NW2337-CD4-10, were tested in ELISPOT assays using a range of peptide pulsed allogeneic EBV-B-cells with known HLA class II types as stimulator cells as indicated in the following Table. The EBV-B-cell lines were HLA typed using standard methods as described above.
The NW2337-CD4-1 clone recognized allogenic peptide pulsed EBV-B cells from patients NW-2078, NW-2081, NW-2395, NW-2234, NW-2337, NW-1100 and MZ-1257. The allogenic EBV-B cells were recognized by the T cells when pulsed exogenously with either the NY-ESO-1 p49-66 or p55-72 as observed with autologous EBV-B cells described above. […] None of the EBV-B-cells lines that were not recognized by the T cells expressed this MHC allele. […] Again the NY-ESO-1 positive MZ-1257 EBV-B-cell line was recognized with or without exogenous peptide.

CD8+ T-cells = test: ELISPOT of CD8+ T-cells presensitized with Ad2/ESO infected PBMC; format: cell-based, human
Procedure: To examine the possibility that one of the novel MHC class II epitopes described in this study may also represent an MHC class I binding peptide epitope, CD8^+ T-cells from the patients described above, were presensitized with autologous CD4^−/CD8^− PBMC infected with the recombinant adenovirus Ad2/ESO. Responder T-cells were tested in ELISPOT assays for recognition of autologous APC's pulsed with the 28 overlapping 18 mer peptides described in Table 2.

T1 sequence (P01920 33-261, other chains not shown): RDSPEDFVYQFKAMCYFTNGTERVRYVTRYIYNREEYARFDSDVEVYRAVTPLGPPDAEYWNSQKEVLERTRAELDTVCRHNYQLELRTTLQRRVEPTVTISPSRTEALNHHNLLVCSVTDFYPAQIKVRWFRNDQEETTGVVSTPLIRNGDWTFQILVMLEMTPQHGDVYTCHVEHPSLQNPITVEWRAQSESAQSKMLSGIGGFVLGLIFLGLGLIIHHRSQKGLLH

Substance: P55-72: synthetic 18 mer peptide, amino acids 55-72 of NY-ESO-1 (GPGGGAPRGPHGGAASGL; UniProt P78358 55-72, looked up, fragment) [Peptide P55-72]
- Patient T cells 1 (CD4+ T cells; IFN-γ ELISPOT, day 12, CD4+ T cells of patient 1, autologous peptide pulsed EBV-B cells as targets): + (+ indicates >50 spots (all + scores indicated were >100 spots))
- Patient T cells 2 (CD4+ T cells; IFN-γ ELISPOT, day 12, CD4+ T cells of patient 2, autologous peptide pulsed EBV-B cells as targets): + (+ indicates >50 spots (all + scores indicated were >100 spots))
- Patient T cells 3 (CD4+ T cells; IFN-γ ELISPOT, day 12, CD4+ T cells of patient 3, autologous peptide pulsed EBV-B cells as targets): + (+ indicates >50 spots (all + scores indicated were >100 spots))
- patients whose CD4+ T cells recognized the peptide (CD4+ T cells; three patients tested): all three patients
- lysis of peptide pulsed autologous NW-2337-EBV B-cell lines by clones NW-2337-CD4-3 and -10 [1]: efficiently lysed
- recognition by clone NW2337-CD4-1 ([1]; autologous EBV B cells pulsed with peptide 10 μg/ml, clone generated with p49-66): crossreacted
- recognition by clone NW2337-CD4-10 ([1]; autologous EBV B cells pulsed with peptide 10 μg/ml, clone generated with p55-72): recognized
- MHC class II allele presenting the peptide to NW2337-CD4-10 T cells (HLA-DQB1 03011; only HLA-DQB1 03011 expressing allogenic EBV-B cell lines recognized): HLA-DQB1 03011
- MHC class II allele presenting the peptide to NW2337-CD4-1 T cells (HLA-DQB1 03011; only shared allele of the recognized peptide pulsed allogenic EBV-B cell lines): HLA-DQB1 03011
- NW1454 CD8+ T-cell recognition of peptide pulsed T2-A3 and HLA-A3 expressing NW115 EBV-B-cell target cells (CD8+ T-cells): recognition
- recognition by CD8+ T-cells (CD8+ T-cells; CD8+ T-cells from patient NW1231, NW1454 and NW2427, autologous APC's pulsed with peptide): observed
- HLA class I molecule presenting the peptide (CD8+ T-cells; only shared HLA class I allele of the three patients): HLA-A3

Source: US7632506B2, “Identification of new NY-ESO-1 epitopes recognized by CD4+ T-cells” (Ludwig Institute for Cancer Research, priority 2005, dated 2009)
